How the values were obtained:
LTB4 Receptor = biological target: T1, LTB4 Receptor (Homo sapiens, UniProt Q15722); test: LTB4 Receptor Binding Assay (inhibition of 3H-LTB4 binding, isolated human neutrophils); conditions: 0.5 nM 3H-LTB4, 45 minutes on ice, Cheng-Prusoff, read-out: Ki, human neutrophil cells (inhibition of 3H-LTB4 binding)
T1 construct: Isolated human neutrophils in Gey's salt solution; endogenous in cells; host or cells: isolated human neutrophils
Protocol: LTB4 Receptor Binding Assay
Binding assays can be performed in microliter wells. Isolated human neutrophils in Gey's salt solution are incubated on ice for 45 minutes with 0.5 nM ^3 H-LTB4 in the presence or absence of test compounds. Assays are terminated by adding 12 ml of ice cold 50 mM Tris buffer (pH 7.4) followed by rapid filtration under vacuum through GF/C filters. Radioactivity is determined by scintillation counting. Non specific binding is defined as the binding not displaced by 100 fold excess of unlabelled LTB4. Specific binding is defined as the difference between total binding and non-specific binding. Non linear analysis of the binding data is performed using LIGAND (Munson and Rodbard, 1980). Ki (Inhibition Constant) values were determined using the Cheng-Prusoff relationship (Cheng and Prusoff, 1973).
When representative compounds of formulas A, B or C of the invention were tested, the results as set forth in Table I and expressed as inhibition of ^3 H-LTB4 binding were obtained.

leukotriene B4 = test: Guinea Pig Bronchoconstriction, In Vivo (leukotriene B4 challenge); set-up: species or system guinea pig (Hartley strain); conditions: 0.1 mg/kg test compound dose p.o., 2 hr prior to leukotriene B4 (200 μg/kg i.v.); propranolol 0.1 mg/kg i.v.; male guinea pigs
Protocol: Guinea Pig Bronchoconstriction, In Vivo
Male guinea pigs (Hartley strain), weighing 300 to 500 g are anesthetized with urethane (2 g/kg) intraperitoneally and a polyethylene cannula is inserted into the jugular vein for drug administration. Tracheal pressure is recorded from a cannula inserted into the trachea and connected to a Gould P231D pressure transducer. After surgical preparation of the animals, a period of time is allowed for pulmonary functions to stabilize. Animals are then paralyzed with succinylcholine (1.2 mg/kg, i.v.) and mechanically respirated (Harvard rodent respirator) at 40 breaths/minute and 2.5 cc tidal volume. The test compound is administered p.o., 2 hr prior to leukotriene B4 administration. Propranolol (0.1 mg/kg) is administered intravenously 5 min prior to leukotriene B4 administration. Animals are then challenged with an intermediate constrictory dose of leukotriene B4 (200 μg/kg), delivered intravenously.
The change (cm H2 O) between pre and peak ventilatory pressure readings is averaged for 6 control and 6 drug treated animals. The percent inhibition is calculated from the formula:
((Control-Drug Treated)/Control)×100
When representative compounds of formulas A, B and C of the invention were utilized as the test compounds, the following results were obtained: […]

T1 sequence (Q15722 whole entry): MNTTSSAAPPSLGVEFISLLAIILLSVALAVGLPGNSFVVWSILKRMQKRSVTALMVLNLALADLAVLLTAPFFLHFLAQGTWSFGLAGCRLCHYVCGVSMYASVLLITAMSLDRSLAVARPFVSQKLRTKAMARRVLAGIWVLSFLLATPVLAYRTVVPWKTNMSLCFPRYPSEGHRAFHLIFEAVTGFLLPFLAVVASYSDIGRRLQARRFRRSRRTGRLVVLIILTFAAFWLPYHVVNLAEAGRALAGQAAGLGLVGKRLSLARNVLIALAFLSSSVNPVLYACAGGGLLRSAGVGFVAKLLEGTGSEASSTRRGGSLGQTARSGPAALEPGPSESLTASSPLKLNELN

Row | Structure (SMILES) | Ki (LTB4 Receptor) | % inhibition (of leukotriene B4-induced bronchoconstriction) (leukotriene B4)
1 | O=C(O)CCCOc1cccc(CCCCCCOc2ccc3c(c2CCCc2ccccc2)OCCC3=O)c1CCC(=O)O [2-(3-Carboxypropoxy)-6-[6-[[3,4-dihydro-4-oxo-8-(3-phenylpropyl)-2H-1-benzopyran-7-yl]oxy]hexyl]benzenepropanoic Acid] | 1 nM | 67%
2 | O=C(O)CCCOc1cccc(CCCCCCOc2ccc3c(c2CCCc2ccccc2)CCCC3=O)c1CCC(=O)O [2-(3-Carboxypropoxy)-6-[6-[[5,6,7,8-tetrahydro-5-oxo-1-(3-phenylpropyl)-2-naphthalenyl]oxy]hexyl]benzenepropanoic Acid] | 2 nM | 78%
3 | O=C(O)CCCOc1cccc(CCCCCCOc2ccc3c(c2C/C=C/c2ccccc2)CCCC3=O)c1CCC(=O)O [(E)-2-(3-Carboxypropoxy)-6-[6-[[5,6,7,8-tetrahydro-5-oxo-1-(3-phenyl-2-propenyl)-2-naphthalenyl]oxy]hexyl]benzenepropanoic Acid] | 1 nM | 64%

Source: US5457124A, “Carboxylic acid Leukotriene B4 antagonists” (Hoffmann-La Roche Inc., priority 1993, dated 1995)
